According to patent publication US12357924B2, “Process for producing enriched fraction from Bacopa monnieri extract for management of neurodegenerative disorders” (STAR HI HERBS PVT LTD, priority 2021, dated 2025):

Assays:
MES induced convulsion = assay: Maximal electroshock induced seizures (MES) model; type: in vivo, albino Wister rats
Procedure: (§1) In further embodiment of the present invention the anticonvulsant activity of Bacopa monnieri extract Bacosane is determined using Pentylenetetrazole (PTZ) and the maximal electroshock seizure (MES) models. The analysis is performed on healthy Swiss mice of either sex, weighing about 25-30 g and Wistar rats of either sex, weighing about 150-200 g. The animals were grouped and housed in polyacrylic cages (38×23×10 cm) with not more than six animals per cage and maintained under standard laboratory conditions (temperature 25° C.) with dark and light cycle (12/12 h). All the animals were acclimatized to laboratory condition for a week before commencement of the analysis. The animals were randomly allocated into four groups of six each: Group I (control group), Group II, Group III, Group IV.
Group-I received 10 ml/kg of 1% NaCMC p.o. which served as control.
Group-II received phenytoin sodium (25 mg/kg, orally) as standard controls in MES method and PTZ induced seizures method respectively.
Group-III and IV were administered two graded doses of Bacopa monnieri extract Bacosane i.e., 50 mg/kg and 100 mg/kg, respectively, p.o.
In the above analysis the percentage protection of animals was recorded as percentage of reduction in duration of seizures wherein the control group is assumed as 100%. The observations of group II, III and IV were compared with control Group-I. It is observed that Bacopa monnieri extract Bacosane has potential anticonvulsant activity due to the presence of certain active phytoconstituents. The anticonvulsant activity of Bacopa monnieri extract Bacosane involves GABAergic transmission and glutaminergic transmission or sodium channel blockage. However, it can be considered that the Bacopa monnieri extract Bacosane as a potent anticonvulsant supplement. The analysis and observations of Pentylenetetrazole (PTZ) and the maximal electroshock seizure (MES) models is shown in FIG. 3 to FIG. 6.
FIG. 3 is the graphical representation of effect of Bacopa Monnieri extract Bacosane on tonic extension phase in MES induced convulsion. […]

[1] = test system: PTZ induced tonic-clonic convulsions; assay: Pentylenetetrazole (PTZ) induced convulsions model; type: in vivo, rats; conditions: phenytoin sodium 25 mg/kg orally
Procedure: as §1
Group-I received 10 ml/kg of 1% NaCMC p.o. which served as control. […]
In the above analysis the percentage protection of animals was recorded as percentage of reduction in duration of seizures wherein the control group is assumed as 100%. […]
FIG. 5 depicts graphical representation of effect of Bacopa Monnieri extract Bacosane on tonic-clonic convolution in Pentylenetetrazole (PTZ) induced model in rats. […] The onset of convulsions, number of animals that convulsed and number of animals that were protected from clonic convulsions were recorded.

[2] = test system: behavior of rats in open field; assay: Open field test; type: in vivo, Wistar strain rats; conditions: 5 minutes; Diazepam 1 mg/kg, Bacosane 50 mg/kg and 100 mg/kg; vs normal saline
Procedure: (§2) In further embodiment of the present invention the anxiolytic effect of Bacopa monnieri extract Bacosane is determined by employing 4 different tests i.e., the elevated plus maze (EPM) test, open field test (OFT), […] test and Light dark transition test. The compounds used in these four tests comprises Bacopa monnieri extract Bacosane; and Diazepam (1 mg/kg, i.p.) which is used as standard anxiolytic agent. The four tests are performed on Wistar strain rats of both sex of weighing 130 to 180 g, which were divided into four groups of six rats each (Group I, Group II, Group III and Group IV)
(§3) Group I vehicle (normal saline) at a dose of 10 ml/kg body weight
(§4) Group II received Bacopa monnieri extract Bacosane, at a dose of 50 mg/kg body weight
(§5) Group III received Bacopa monnieri extract Bacosane, at a dose of 100 mg/kg body weight
(§6) Group IV received standard drug, diazepam 1 mg/kg body weight
FIG. 11 depicts comparison of effect of Bacopa monnieri extract Bacosane and Diazepam on behavior of rats in open field test. The apparatus comprises a wooden box (60×60×60 cm). The area of the open field was divided into 16 squares (15×15 cm), the four inner squares in the center and 12 squares in the periphery along the walls. The other identical condition comprises of sound attenuated and dark experimental room. […]

[3] = test system: behavior of rats in elevated plus maze; assay: Elevated plus maze test; type: in vivo, Wistar strain rats; conditions: 5 minutes test; Bacosane 50 and 100 mg/kg p.o., diazepam 1 mg/kg; vs vehicle
Procedure: as §2, §3, §4, §5, §6
FIG. 9 depicts comparison of effect of Bacopa monnieri extract Bacosane and diazepam in behavior of rats in elevated plus maze test. […] The percentage of time spent (duration) in open arms and frequency of open arm entries were counted for a period of 5 minutes. […] The percentage of time spent in the open arms and number of open arm entries were calculated using the formulas [100×open/(open+enclosed)] and (100×open/total entries), respectively.

[4] = test system: locomotor activity of the rats; assay: Actophotometer method (locomotor activity); type: in vivo, Wistar strain rats; conditions: diazepam 1 mg/kg
Procedure: In further embodiment of the present invention the anxiolytic effect of Bacopa monnieri extract Bacosane is determined by employing 4 different tests i.e., the elevated plus maze (EPM) test, open field test (OFT), Astrophotometer test and Light dark transition test. The compounds used in these four tests comprises Bacopa monnieri extract Bacosane; and Diazepam (1 mg/kg, i.p.) which is used as standard anxiolytic agent. The four tests are performed on Wistar strain rats of both sex of weighing 130 to 180 g, which were divided into four groups of six rats each (Group I, Group II, Group III and Group IV)
In this test, the rats are placed in the digital Actophotometer in which a constant beam of light from six lights will be made to fall on corresponding photoelectric cells. The photoelectric cells get activated when an animal crosses the beam of light and thereby cuts off (crossing) the rays of light falling on it. After 1 hour of Bacopa Monnieri extract Bacosane administration the numbers of crossings are counted for a period of 10 minutes by the actophotometer. […]

hippocampus = conditions: sub-chronic and chronic administration, 30 mg/kg; cited from earlier work
[5] = DPPH free radical scavenging assay; type: biochemical; conditions: 0.1 mM DPPH in methanol, 30 minutes, absorbance at 517 nm
Procedure: The free radical scavenging activity of Bacopa monnieri extract Bacosane and BHT is determined through the process comprising steps of: preparing solution of 0.1 mM DPPH in methanol, and 1.5 mL of this solution was mixed with 1.5 mL of extract in methanol at different concentrations (50, 100, 150, 200 and 250 m/mL); and measuring the absorbance at 517 nm, after leaving the above mixture for 30 minutes of incubation at dark room. Butylated hydroxytoluene (BHT) was used as the reference standard at different concentrations (20, 40, 60, 80 and 100 m/m1). The radical scavenging activity of DPPH was calculated using the following equation: [A0-A1)/A0]×100 where A0 is the absorbance of the control, and A1 is the absorbance of the standard. Then the percentage (%) of inhibition was plotted against concentration of the Bacopa monnieri extract Bacosane and BHT, and from the graph as shown in FIGS. 7A-7B half-maximal inhibitory concentration (IC50) was calculated to determine the efficacy of Bacopa monnieri extract Bacosane in comparison to standard butylated hydroxytoluene (BHT).

With `O=C1NC(=O)C(c2ccccc2)(c2ccccc2)N1` [Phenytoin, phenytoin sodium] the “hind limb tonic extension” value (MES induced convulsion; MES model, compared to control group) was “decreased”, the extensor phase (MES induced convulsion; MES model, phenytoin sodium 25 mg/kg orally) was “abolished the extensor phase completely” and the “protection in animals against MES” value (MES induced convulsion; phenytoin sodium 25 mg/kg orally) was 100%. For the same molecule, the “anticonvulsant effect (latency, onset of clonic convulsions, onset of tonic seizures)” value ([1]; PTZ 90 mg/kg i.p., Bacosane 50 and 100 mg/kg orally) was “significantly anticonvulsant activity” and the protection ([1]; PTZ model) was 100%.
In the case of `CN1C(=O)CN=C(c2ccccc2)c2cc(Cl)ccc21` [Diazepam], the “anxiolysis (increased ambulation, rearing and preening, decreased defecations)” value [2] is reported as “significantly exhibited anxiolysis”, the “closed arm number of entries and time spent” value [3] is reported as “significantly decreased” and the “percentage of number of open arm entries and time spent in open arm” value [3] is reported as “significant increase”. For the same molecule, the “number of crossings of light beams compared to control group” value [4] was “significantly reduced”.
In the case of `C[C@H]1[C@H](C)CC[C@]2(C(=O)O)CC[C@]3(C)C(=CC[C@@H]4[C@@]5(C)C[C@@H](O)[C@H](O)[C@@](C)(CO)[C@@H]5CC[C@]43C)[C@H]12` [asiatic acid], the “cell proliferation in the hippocampus” value (hippocampus) is listed as “increase” and the spatial working memory (hippocampus) is listed as “stimulate”.
In the case of `Cc1cc(C(C)(C)C)c(O)c(C(C)(C)C)c1` [butylated hydroxytoluene (BHT), butylated hydroxytoluene], the “half-maximal inhibitory concentration (IC50), DPPH free radical scavenging” value [5] is reported as 150.50 mg/L.
